Measurements taken from patent US9816989B2, “Immunologically active polypeptide” (Institute of Arthritis Research, LLC, priority 2013, dated 2017).

How the values were obtained:
[1] = system: macrophage cell line (THP-1); assay: Flow cytometry binding to macrophage/monocyte cell line with or without LPS; conditions: presence or absence of LPS
E. coli = E. coli growth (CFUs) incubated with human peripheral blood leukocytes with and without PeptideX2; format: cell-based; conditions: E. coli with WBCs and PeptideX2; 10 hours; FIG. 11
Method: To test this hypothesis, human peripheral white cells were incubated with E. coli in the presence and absence of PeptideX2.
Human peripheral blood leukocytes (WBCs) were obtained from healthy donors with informed consent. Three test groups were inoculated with E. coli and incubated for 10 hours. The three groups were E. coli with serum alone, E. coli with WBCs, and E. coli with WBCs with PeptideX2. Samples were taken at 0, 2, 4, 6 and 10 hours and plated for colony forming units (CFUs). […] In a separate but similar experiment, nine test groups (E. coli with serum alone, E. coli with WBCs, and E. coli with WBCs with PeptideX2 at each of seven indicated concentrations, see FIG. 12) were incubated over a time course of three hours, with quantification of bacterial CFU performed at times 0, 1.5 and 3 hours (FIG. 12).

peripheral blood cells = assay: Cytokine production by human peripheral blood cells in culture (MSD panel); format: cell-based
Method: In order to examine the biological activity of IgX, cytokine production from human peripheral whole blood samples incubated with IgX was measured. Peripheral whole blood samples from three different donors (#66, 67, and 85) were obtained with appropriate informed consent and incubated with concentrations of IgX ranging from 0 to 200 ug/ml.
Protein A purified IgX was prepared from placental sample BC, brought to 0.05 M phosphate, 0.15 M NaCl buffer, pH 7.4, treated with an endotoxin affinity column (ActiClean Etox™ from Sterogene, Carlsbad, Calif.) according to the supplier's instructions, and then sent to IBT Bioservices (Gaithersburg, Md.) for human peripheral blood testing. […] All peripheral blood cells were suspended in RPMI-1640 media. Various concentrations of IgX were incubated with peripheral blood cells from donor D66 for 18 hours, and then the samples were stimulated with 1 ug/ml of PHA, 50 ng/ml of LPS, or 10 ng/ml of IFNγ (200 U/ml) for four hours. Samples of culture supernatant fluids were tested in duplicate for the presence of IL-2, IL-4, IL-6, IL-10, IL-12, and TNFα using a Meso Scale Discovery (MSD, Gaithersburg, Md.) panel.
PeptideX1 and PeptideX2 were incubated with peripheral blood cells from donor D67 as described above and tested in duplicate for IL-6 activity. […]

In the case of “KSIAYLQMNSLK (Peptide fragment) [PeptideX2]”, the “binding to monocyte cell line” value [1] is reported as “without any binding”, the “E. coli CFUs” value (E. coli) is reported as “rapid rise in CFUs” and the “IL-6 production compared to peptideX1” value (peripheral blood cells; cells from donor #67, FIG. 7) is reported as “significantly greater”. For the same sequence, the IL-6 production (peripheral blood cells; cells from donor #85, PeptideX2 0-200 ug/ml, FIG. 9) was “enhanced production”.
